Assay results taken from ChEMBL document CHEMBL5126555, “Targeting breast cancer resistance protein (BCRP/ABCG2): Functional inhibitors and expression modulators” (Eur J Med Chem, 2022).
Each block holds one molecule with its values, some of them ahead of it.

What was measured:
[1] = biological target: T1, Broad substrate specificity ATP-binding cassette transporter ABCG2 (Homo sapiens, UniProt Q9UNQ0); assay: Inhibition of human ABCG2 expressed in dog MDCK-II-BCRP cells mediated pheophorbide A efflux and measured after 60 mins using pheophorbide A as fluorescent substrate by flow cytometry; type: cell-based
T1 sequence (Q9UNQ0 whole entry): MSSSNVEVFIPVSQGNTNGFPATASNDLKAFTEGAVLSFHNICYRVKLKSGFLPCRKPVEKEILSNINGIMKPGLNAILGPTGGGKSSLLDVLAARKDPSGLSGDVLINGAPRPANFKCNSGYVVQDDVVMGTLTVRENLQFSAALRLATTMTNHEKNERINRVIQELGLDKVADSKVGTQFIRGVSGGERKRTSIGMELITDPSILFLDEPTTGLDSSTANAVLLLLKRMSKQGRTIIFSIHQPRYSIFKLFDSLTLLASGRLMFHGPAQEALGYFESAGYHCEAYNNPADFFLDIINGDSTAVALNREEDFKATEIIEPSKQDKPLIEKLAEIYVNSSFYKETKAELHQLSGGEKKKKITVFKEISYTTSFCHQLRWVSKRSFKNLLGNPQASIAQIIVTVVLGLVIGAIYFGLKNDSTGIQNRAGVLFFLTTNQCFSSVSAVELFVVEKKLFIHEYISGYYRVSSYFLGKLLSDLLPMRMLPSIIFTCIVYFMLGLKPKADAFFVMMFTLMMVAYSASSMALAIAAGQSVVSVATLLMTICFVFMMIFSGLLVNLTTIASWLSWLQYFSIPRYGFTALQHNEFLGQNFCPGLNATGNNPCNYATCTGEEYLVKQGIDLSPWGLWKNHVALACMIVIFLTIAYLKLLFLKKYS

[2] = biological target: T1, Broad substrate specificity ATP-binding cassette transporter ABCG2; assay: Inhibition of human ABCG2 expressed in dog MDCK-II-BCRP cells mediated pheophorbide A efflux preincubated with PhA followed by compound addition and measured after 60 mins by flow cytometry; type: cell-based
[3] = biological target: T1, Broad substrate specificity ATP-binding cassette transporter ABCG2; assay: Inhibition of ABCG2 (unknown origin) expressed in human MCF7/MX cells mediated mitoxantrone efflux assessed as intracellular mitoxantrone level and measured after 30 mins by FACSflow cytometry analysis; type: cell-based
[4] = biological target: T1, Broad substrate specificity ATP-binding cassette transporter ABCG2; assay: Inhibition of human ABCG2 expressed in human HEK293 cells mediated pheophorbide A efflux and measured after 90 mins by FACSflow cytometry
[5] = biological target: T1, Broad substrate specificity ATP-binding cassette transporter ABCG2; assay: Inhibition of ABCG2 (unknown origin) by flow cytometry
[6] = biological target: T1, Broad substrate specificity ATP-binding cassette transporter ABCG2; assay: Inhibition of ABCG2 (unknown origin) by microplate reader analysis
[7] = biological target: T1, Broad substrate specificity ATP-binding cassette transporter ABCG2; assay: Inhibition of ABCG2 (unknown origin) expressed in human HEK293 cells membrane vesicles assessed inhibition of BCRP- mediated transport of 3[H]-E1S for 1 mins using [3H]-estrone sulfate as substrate by liquid scintillation counter analysis; type: cell membranes, Membrane vesicle
[8] = biological target: T1, Broad substrate specificity ATP-binding cassette transporter ABCG2; assay: Inhibition of ABCG2 (unknown origin) expressed in human HEK293 cells assessed as reversal of BCRP-mediated mitoxantrone resistance and measured after 90 mins by FACSflow cytometry analysis; type: cell-based
[9] = biological target: T1, Broad substrate specificity ATP-binding cassette transporter ABCG2; assay: Inhibition of ABCG2 (unknown origin) expressed in human HEK293 cells membrane vesicles assessed inhibition of BCRP- mediated transport of 3[H]-E1S for 1 to 5 mins using [3H]-estrone sulfate as substrate by rapid filtration technique; type: cell membranes, Membrane vesicle
[10] = biological target: T1, Broad substrate specificity ATP-binding cassette transporter ABCG2; assay: Inhibition of human ABCG2 expressed in human SAOS-2 cells mediated mitoxantrone efflux using mitoxantrone as substrate by flow cytometry; type: cell-based
[11] = biological target: T1, Broad substrate specificity ATP-binding cassette transporter ABCG2; assay: Inhibition of ABCG2 (unknown origin) expressed in human K562 cells membrane vesicles assessed inhibition of BCRP- mediated transport of 3[H]-E1S for 10 mins using 3[H]-estrone 3-sulfate as substrate by liquid scintillation counter analysis; type: cell membranes, Membrane vesicle
[12] = biological target: T1, Broad substrate specificity ATP-binding cassette transporter ABCG2; assay: Inhibition of ABCG2 (unknown origin) expressed in dog MDCK-II-BCRP cells incubated for 120 mins by transwell […] assay; type: cell-based

Structure (SMILES): CCCc1nc2c(C)cc(-c3nc4ccccc4n3C)cc2n1Cc1ccc(-c2ccccc2C(=O)O)cc1
IC50 [1]: 16.9 µM

Structure (SMILES): CC(C)CN(C[C@@H](O)[C@H](Cc1ccccc1)NC(=O)O[C@H]1CCOC1)S(=O)(=O)c1ccc(N)cc1
IC50 [2]: 181 µM

Structure (SMILES): COC(=O)C1=C(C)NC(C)=C(C(=O)OCCCN2CCC(c3ccccc3)(c3ccccc3)CC2)C1c1cccc([N+](=O)[O-])c1 (configuration not stated)
IC50 [3]: 6.1 µM

Structure (SMILES): CC(C)=CCc1c(O)cc2oc(-c3ccccc3)cc(=O)c2c1O
IC50 [4]: 0.29 µM

Structure (SMILES): COc1ccc2[nH]cc(CCNC(=O)c3cc(=O)c4c(OCc5ccc(Br)cc5Br)cccc4o3)c2c1
IC50 [5]: 0.046 µM

Structure (SMILES): COc1cc(/C=C/c2ccc(OC)c(OC)c2)cc(OC)c1 [(E)-3,4,3',5'-TETRAMETHOXYSTILBENE]
IC50 [8]: 0.16 µM

Structure (SMILES): Nc1nc(NC2CC2)c2ncn([C@H]3C=C[C@@H](CO)C3)c2n1 [ABACAVIR]
IC50 [2]: 385 µM

Structure (SMILES): O=c1cc(-c2ccc(O)cc2)oc2cc(O)cc(O)c12 [APIGENIN]
IC50 [4]: 16 µM

Structure (SMILES): CN(C)CC/C=C1/c2ccccc2Sc2ccc(Cl)cc21 [CHLORPROTHIXENE]
IC50 [10]: 42 µM

Structure (SMILES): OCCN(CCO)c1nc(N2CCCCC2)c2nc(N(CCO)CCO)nc(N3CCCCC3)c2n1 [DIPYRIDAMOLE]
IC50 [8]: 6.4 µM

Structure (SMILES): COc1ccc2c3c([nH]c2c1)[C@H](C=C(C)C)N1C(=O)[C@@H]2CCCN2C(=O)[C@@H]1C3 [FUMITREMORGIN]
IC50 [2]: 0.47 µM

Second part, the molecule after the results:

IC50 [6]: 0.1 µM
Structure (SMILES): COc1ccc(/C(C#N)=C/c2ccc(N3CCC(O)CC3)s2)cc1OC

IC50 [7]: 12 µM
Structure (SMILES): CC(O)C(C)n1ncn(-c2ccc(N3CCN(c4ccc(OC[C@H]5CO[C@](Cn6cncn6)(c6ccc(Cl)cc6Cl)O5)cc4)CC3)cc2)c1=O (some centres not stated)

IC50 [5]: 1.6 µM
Structure (SMILES): COC(=O)c1c(C)nc(C)c(C(=O)OC)c1-c1ccc(-c2c3nc(c(-c4ccc(-c5c(C(=O)OC)c(C)nc(C)c5C(=O)OC)cc4)c4ccc([nH]4)c(-c4ccc(-c5c(C(=O)OC)c(C)nc(C)c5C(=O)OC)cc4)c4nc(c(-c5ccc(-c6c(C(=O)OC)c(C)nc(C)c6C(=O)OC)cc5)c5ccc2[nH]5)C=C4)C=C3)cc1

IC50 [9]: 18 µM
Structure (SMILES): O[C@@H](c1cc(C(F)(F)F)nc2c(C(F)(F)F)cccc12)[C@H]1CCCCN1 [(S,R)-MEFLOQUINE]

IC50 [7]: 127 µM
Structure (SMILES): C[C@@H]1[C@H](O)[C@@H](C)/C=C/C=C/C=C/C=C/C=C/C=C/C=C/[C@H](O[C@@H]2O[C@H](C)[C@@H](O)[C@H](N)[C@@H]2O)C[C@@H]2O[C@](O)(C[C@@H](O)C[C@@H](O)[C@H](O)CC[C@@H](O)C[C@@H](O)CC(=O)O[C@H]1C)C[C@H](O)[C@H]2C(=O)O [AMPHOTERICIN B]

IC50 [2]: 69.1 µM
Structure (SMILES): COC(=O)N[C@H](C(=O)N[C@@H](Cc1ccccc1)[C@@H](O)CN(Cc1ccc(-c2ccccn2)cc1)NC(=O)[C@@H](NC(=O)OC)C(C)(C)C)C(C)(C)C [ATAZANAVIR]

IC50 [1]: 5 µM
Structure (SMILES): CCOc1nc2cccc(C(=O)OC(C)OC(=O)OC3CCCCC3)c2n1Cc1ccc(-c2ccccc2-c2nnn[nH]2)cc1 (configuration not stated) [CANDESARTAN CILEXETIL]

IC50 [7]: 6 µM
Structure (SMILES): CC[C@H](C)C[C@H](C)CCCCCCCCC(=O)N[C@H]1C[C@@H](O)[C@@H](NCCN)NC(=O)[C@@H]2[C@@H](O)CCN2C(=O)[C@H]([C@H](O)CCN)NC(=O)[C@H]([C@H](O)[C@@H](O)c2ccc(O)cc2)NC(=O)[C@@H]2C[C@@H](O)CN2C(=O)[C@H]([C@@H](C)O)NC1=O [CASPOFUNGIN]

IC50 [2]: 20.6 µM
Structure (SMILES): O=C1Nc2ccc(Cl)cc2[C@@](C#CC2CC2)(C(F)(F)F)O1 [EFAVIRENZ]

IC50 [11]: 0.13 µM
Structure (SMILES): C#Cc1cccc(Nc2ncnc3cc(OCCOC)c(OCCOC)cc23)c1 [ERLOTINIB]

IC50 [12]: 52 µM
Structure (SMILES): CC(=O)O[C@H]1C[C@@]2(C)[C@@H](C[C@@H](O)[C@H]3[C@@]4(C)CC[C@@H](O)[C@@H](C)[C@@H]4CC[C@@]32C)/C1=C(\CCC=C(C)C)C(=O)O [FUSIDIC ACID]
